Test results reported in PubChem BioAssay (NCI).
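Compound exposure: 48 hours, 5 concentrations, 96-well plates. The concentration for 50% growth inhibition is given as GI50. At the TGI there is no net growth.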

Legend:
Assay in all cases: NCI-60 cell line screen, 48 h
M14 melanoma = tested on: M14 melanoma
NCI-H522 lung = tested on: NCI-H522 lung
RXF 393 renal = tested on: RXF 393 renal
SK-MEL-2 melanoma = tested on: SK-MEL-2 melanoma
CAKI-1 renal = tested on: CAKI-1 renal
HS 578T breast = tested on: HS 578T breast
TK-10 renal = tested on: TK-10 renal
HOP-62 NSCLC = tested on: HOP-62 NSCLC
NCI-H23 lung = tested on: NCI-H23 lung
SK-OV-3 ovarian = tested on: SK-OV-3 ovarian

Row | Compound | GI50 (M14 melanoma) [µM] | TGI (M14 melanoma) [µM] | GI50 (NCI-H522 lung) [µM] | TGI (NCI-H522 lung) [µM] | GI50 (RXF 393 renal) [µM] | TGI (RXF 393 renal) [µM] | GI50 (SK-MEL-2 melanoma) [µM] | TGI (SK-MEL-2 melanoma) [µM] | GI50 (CAKI-1 renal) [µM] | TGI (CAKI-1 renal) [µM] | GI50 (HS 578T breast) [µM] | TGI (HS 578T breast) [µM] | GI50 (TK-10 renal) [µM] | TGI (TK-10 renal) [µM] | GI50 (HOP-62 NSCLC) [µM] | TGI (HOP-62 NSCLC) [µM] | GI50 (NCI-H23 lung) [µM] | TGI (NCI-H23 lung) [µM] | GI50 (SK-OV-3 ovarian) [µM] | TGI (SK-OV-3 ovarian) [µM]
1 | COc1ccc(/C=C2\CN(C(=O)CCN3CCC(=NO)CC3)C/C(=C\c3ccc(OC)cc3)C2=O)cc1 | 2.04 | 4.54 | 2.17 | 5.5 | 1.68 | 3.15 | 11.7 | 30.4 | 1.82 | 3.74 | 3.64 | 18.6 | 2.86 | 10.4 | 2.03 | 4.59 | 2.47 | 6.37 | 2.72 | 7
2 | COc1ccccc1/C=C1\Sc2scc(-c3cccc([N+](=O)[O-])c3)[n+]2C1=O |  | 18.6 |  | 3.61 |  | 10.7 |  | 31.3 |  | 6.24 |  | > 62.6 |  | 10.7 |  | 27.6 |  | 29.6 |  | 26
3 | CSC(SC)=C1C(=O)NN=C1C |  | > 100 |  | > 100 |  | > 100 |  | > 100 |  | > 100 |  | > 100 |  | > 100 |  | > 100 |  | > 100 |  | > 100
4 | S=C(NNC1=NCCCN1)Nc1ccccc1 |  |  |  | > 100 |  | > 100 |  | > 100 |  | > 100 |  | > 100 |  | > 100 |  | > 100 |  | > 100 |  | > 100
5 | CSCCC(NCc1c(O)ccc2ccc(=O)oc12)C(=O)O (stereo unspecified) |  | > 100 |  | > 100 |  | > 100 |  | > 100 |  | > 100 |  | > 100 |  | > 100 |  | > 100 |  | > 100 |  | > 100
6 | CC(CC(=O)CO[C@H]1[C@H](O)[C@@H](O)[C@@H](O)[C@@H]2NC(=O)c3c(cc4c(c3O)OCO4)[C@H]21)OC1OC(CO)C(O)C(O)C1O (stereo partly specified) |  | 2.17 |  | 1.23 |  | 1.8 |  | 0.859 |  | > 100 |  | 3.76 |  | 1.55 |  | 2.29 |  | 3.07 |  | 3.87
7 | O=C1NCC2(CCNCC2)N1c1ccccc1 |  | > 100 |  | > 100 |  | > 100 |  | > 100 |  | > 100 |  | > 100 |  | > 100 |  | > 100 |  | > 100 |  | 
8 | O=C1C(C(O)(C(F)(F)Cl)C(F)(F)Cl)CCC1C(O)(C(F)(F)Cl)C(F)(F)Cl (stereo unspecified) |  | > 10 |  | > 10 |  | > 10 |  | 5.72 |  | 9.69 |  | 5.44 |  | > 10 |  | > 10 |  | 6.19 |  | > 10
9 | Cc1ccc(-c2sc(-c3ccc(C)cc3)c3c2C2CCC3C2)cc1 |  | > 50 |  | > 50 |  | > 50 |  | > 50 |  | > 50 |  | > 50 |  | > 50 |  | > 50 |  | > 50 |  | > 50
10 | CCOC(=O)c1c(O)[nH]c(=O)c(CC)c1C |  | > 100 |  | > 100 |  | > 100 |  | > 100 |  | > 100 |  | > 100 |  | > 100 |  | > 100 |  | > 100 |  | > 100
11 | CC(=O)OCCC1c2ccccc2-n2nc(-c3ccccc3)c(O)c21 (stereo unspecified) |  | 28.6 |  | 32.3 |  | 26 |  | 96.6 |  | 33.6 |  | 54.9 |  | 43.2 |  | 30.1 |  | 34.5 |  | 
12 | CC(NC1=CC(=O)c2ncccc2C1=O)C(O)c1ccccc1 (stereo unspecified) |  | 11 |  | 24.8 |  | 22.2 |  | 17.9 |  | 16.2 |  | 25.1 |  | > 100 |  | 25.9 |  | > 19.8 |  | 71.7
13 | O=C(CCCN1CCC2(CC1)C(=O)NC(=O)N2c1ccccc1)c1ccc(F)cc1 |  | > 100 |  | > 100 |  | > 100 |  | > 100 |  | > 100 |  | > 100 |  | > 100 |  | > 100 |  | > 100 |  | > 100
14 | CC(=O)OC1/C(=C/c2ccc([N+](=O)[O-])cc2)C[C@H]2[C@@H]3CC=C4C[C@@H](OC(C)=O)CC[C@]4(C)[C@H]3CC[C@]12C (stereo partly specified) |  | > 100 |  | > 100 |  | 60.4 |  | > 100 |  | > 100 |  | > 100 |  | > 80.3 |  | > 100 |  | > 100 |  | > 100
15 | Cc1cn(CC2=NCCN2)c(=O)[nH]c1=O |  | > 100 |  | > 100 |  | > 100 |  | > 100 |  | > 100 |  | > 100 |  | > 100 |  | > 100 |  | > 100 |  | > 100
16 | Clc1ccccc1/C=C/c1nsc(/C=C/c2ccccc2Cl)n1 |  | > 100 |  | > 100 |  | > 100 |  | > 100 |  | > 100 |  | > 100 |  | 78.1 |  | > 100 |  |  |  | > 100
17 | CNNC1=NS(=O)(=O)c2cc(C)c(Cl)cc2S1 |  | > 10 |  | > 10 |  | > 10 |  | > 10 |  | > 10 |  | > 10 |  | > 10 |  | > 10 |  | > 10 |  | > 10
18 | N=C(/C=C/c1ccc(-c2cn3cc(/C=C/C(=N)N4CCCC4)ccc3n2)cc1)N1CCCC1 |  | > 100 |  | > 100 |  | > 100 |  | > 100 |  | > 100 |  | > 100 |  | > 100 |  | > 100 |  | > 100 |  | > 100
19 | Cc1c2c(c(C)n1-c1ccccc1)C(=O)N(CCSC(=N)N)C2=O |  | > 100 |  | > 100 |  | > 100 |  | > 100 |  | > 100 |  | > 100 |  | > 100 |  | > 100 |  | > 100 |  | > 100
20 | COC(=O)C1Cc2c([nH]c3ccccc23)C(c2cccc(O)c2)N1 (stereo unspecified) |  | 47.4 |  | > 100 |  | 55.4 |  | 83.3 |  | > 100 |  | > 100 |  | > 100 |  | > 100 |  | 96.8 |  | > 100
